Laboratory results from the NIST ThermoML archive (doi:10.1016/j.tca.2012.10.004).
± gives the expanded uncertainty stated by the source.

Test: xn = mol fraction of the nth substance listed
Details: 101 kPa, Liquid, Pycnometric method

CN(CCO)CCO [N-methyldiethanolamine] + O=S1(=O)CCCC1
mass density [kg/m3]
Details | x1 = 0.1001 | x1 = 0.2012 | x1 = 0.2999 | x1 = 0.4003 | x1 = 0.5005 | x1 = 0.6 | x1 = 0.7002 | x1 = 0.8011 | x1 = 0.8998 | x1 = 1
293.15 K | 1241.9 ± 0.6 | 1214.9 ± 0.6 | 1188 ± 0.6 | 1163.1 ± 0.6 | 1139.8 ± 0.5 | 1118.1 ± 0.5 | 1097.7 ± 0.5 | 1078.9 ± 0.5 | 1059.9 ± 0.5 | 1041.6 ± 0.5
298.15 K | 1237.6 ± 0.6 | 1210.5 ± 0.6 | 1183.9 ± 0.6 | 1159.1 ± 0.6 | 1135.7 ± 0.5 | 1114.1 ± 0.5 | 1093.6 ± 0.5 | 1074.9 ± 0.5 | 1055.9 ± 0.5 | 1037.9 ± 0.5
303.15 K | 1233.1 ± 0.6 | 1205.9 ± 0.6 | 1179.5 ± 0.6 | 1154.8 ± 0.6 | 1131.5 ± 0.6 | 1110 ± 0.5 | 1089.6 ± 0.5 | 1070.9 ± 0.5 | 1051.9 ± 0.5 | 1034.1 ± 0.5
308.15 K | 1228.6 ± 0.6 | 1201.5 ± 0.6 | 1175.1 ± 0.6 | 1150.4 ± 0.6 | 1127.2 ± 0.6 | 1105.8 ± 0.5 | 1085.6 ± 0.5 | 1066.8 ± 0.5 | 1048 ± 0.5 | 1030.3 ± 0.5
313.15 K | 1224.1 ± 0.6 | 1197 ± 0.6 | 1170.7 ± 0.6 | 1146.2 ± 0.6 | 1123.1 ± 0.6 | 1101.6 ± 0.6 | 1081.5 ± 0.5 | 1062.8 ± 0.5 | 1044 ± 0.5 | 1026.5 ± 0.5
318.15 K | 1219.6 ± 0.7 | 1192.4 ± 0.6 | 1166.3 ± 0.6 | 1141.9 ± 0.6 | 1118.9 ± 0.6 | 1097.5 ± 0.6 | 1077.5 ± 0.5 | 1058.7 ± 0.5 | 1040 ± 0.5 | 1022.7 ± 0.5
323.15 K | 1215.2 ± 0.7 | 1187.6 ± 0.6 | 1161.9 ± 0.6 | 1137.5 ± 0.6 | 1114.6 ± 0.6 | 1093.3 ± 0.6 | 1073.3 ± 0.6 | 1054.7 ± 0.5 | 1035.9 ± 0.5 | 1018.9 ± 0.5
328.15 K | 1211.1 ± 0.7 | 1183.3 ± 0.7 | 1157.7 ± 0.6 | 1133.2 ± 0.6 | 1110.4 ± 0.6 | 1089.2 ± 0.6 | 1069.2 ± 0.6 | 1050.6 ± 0.6 | 1032 ± 0.5 | 1015 ± 0.5
